Test results published in US20110251286A1, “Crystalline salts and/or co-crystals of O-desmethyltramadol” (GRUENENTHAL GmbH, priority 2010, published 2011).

Legend:
[1] = Release in artificial intestinal juice; assay type: physicochemical; conditions: permeable bag, amount calculated on 100 mg free base
Method: Investigations on release were carried out in a Sotax AT7 smart release apparatus with UV measurement (Perkin Elmer photometer).
A vessel with Wood apparatus was used (for intrinsic release).
A pressing of 0.5 cm^2 surface area (diameter 8 mm) was produced with a force of 200 N using approximately 100 mg of active ingredient.
Release was carried out in a release medium, which is composed as described below: • Intestinal juice without pancreas powder, pH 6.8 (analogous to Ph. Eur.); 250.0 ml 6.8 g of potassium dihydrogenphosphate R+0.896 g of NaOH+water to 1000.0 ml.
Release was carried out in a release volume of in each case 500±5 ml at a temperature of the release medium of 37±1° C. with a stirring speed of 100±5 rpm.
The content determination was carried out by means of spectroscopic methods (UV spectroscopy, wavelength: 271 nm, cuvette: 10 mm). Sample taking was carried out manually.
In this release experiment, the individual compounds were placed in a permeable bag in an amount in each case calculated on 100 mg of the free base.
The results, expressed in percent of the substance released, are reproduced in the following tables. In this case, the compounds denote: HCl: hydrochloride; A: cinnamate; B: palmitate; C: decanoate; E: hemi-fumarate and F: hemi-sebacate.

[2] = Dynamic vapor sorption (DVS): sorption and desorption of moisture; assay type: physicochemical
Method: Investigations on the sorption and desorption of moisture (dynamic vapor sorption, DVS): DVS measurements were carried out on an apparatus of the type DVS 1000 from Porotec. The evaluation of the measurements was carried out using software from Surface Measurement Systems. At a temperature between 23° C. and 26° C., starting from a relative humidity of 50%, within 240 minutes the relative humidity first increased to 90% and then fell to 0%. This cycle was repeated a second time. The DVS charts shown are isothermal recordings (plots) of the change in the mass in % (change in mass—dry) as a function of the desired relative humidity in % (target RH). Correspondingly, the axes of the graphs are marked by ΔM [%] and RH [%]. The measurement curves of the first sorption are designated by 1-S, the subsequent first desorption by 1-D, the second sorption by 2-S and the second desorption by 2-D. Advantageously, mass changes between the sorption and desorption phase are as low as possible.

SMILES: CN(C)CC1CCCCC1(O)c1cccc(O)c1.O=C(O)C=Cc1ccccc1 (stereo not drawn) [A-2]
- Release in artificial intestinal juice, percent of the substance released ([1]; t 2 min): 53.05%
- Release in artificial intestinal juice, percent of the substance released ([1]; t 4 min): 76.86%
- Release in artificial intestinal juice, percent of the substance released ([1]; t 6 min): 86.98%
- Release in artificial intestinal juice, percent of the substance released ([1]; t 8 min): 96.27%
- Release in artificial intestinal juice, percent of the substance released ([1]; t 10 min): 94.24%
- Release in artificial intestinal juice, percent of the substance released ([1]; t 12 min): 95.42%
- Release in artificial intestinal juice, percent of the substance released ([1]; t 15 min): 98.53%
- Release in artificial intestinal juice, percent of the substance released ([1]; t 30 min): 98.80%

SMILES: CN(C)CC1CCCCC1(O)c1cccc(O)c1.CN(C)CC1CCCCC1(O)c1cccc(O)c1.O=C(O)C=CC(=O)O (stereo not drawn) [E-2]
- Release in artificial intestinal juice, percent of the substance released ([1]; t 2 min): 95.38%
- Release in artificial intestinal juice, percent of the substance released ([1]; t 4 min): 96.67%
- Release in artificial intestinal juice, percent of the substance released ([1]; t 6 min): 95.80%
- Release in artificial intestinal juice, percent of the substance released ([1]; t 8 min): 96.46%
- Release in artificial intestinal juice, percent of the substance released ([1]; t 10 min): 96.47%
- Release in artificial intestinal juice, percent of the substance released ([1]; t 12 min): 96.45%
- Release in artificial intestinal juice, percent of the substance released ([1]; t 15 min): 96.19%
- Release in artificial intestinal juice, percent of the substance released ([1]; t 30 min): 96.42%

SMILES: CN(C)CC1CCCCC1(O)c1cccc(O)c1.CN(C)CC1CCCCC1(O)c1cccc(O)c1.O=C(O)CCCCCCCCC(=O)O (stereo not drawn) [F-1]
- Release in artificial intestinal juice, percent of the substance released ([1]; t 2 min): 90.31%
- Release in artificial intestinal juice, percent of the substance released ([1]; t 4 min): 95.86%
- Release in artificial intestinal juice, percent of the substance released ([1]; t 6 min): 98.37%
- Release in artificial intestinal juice, percent of the substance released ([1]; t 8 min): 99.10%
- Release in artificial intestinal juice, percent of the substance released ([1]; t 10 min): 98.48%
- Release in artificial intestinal juice, percent of the substance released ([1]; t 12 min): 98.55%
- Release in artificial intestinal juice, percent of the substance released ([1]; t 15 min): 99.15%
- Release in artificial intestinal juice, percent of the substance released ([1]; t 30 min): 98.74%

SMILES: CN(C)C[C@H]1CCCC[C@]1(O)c1cccc(O)c1.Cl [HCl-1]
- Release in artificial intestinal juice, percent of the substance released ([1]; t 2 min): 99.16%
- Release in artificial intestinal juice, percent of the substance released ([1]; t 4 min): 99.89%
- Release in artificial intestinal juice, percent of the substance released ([1]; t 6 min): 98.77%
- Release in artificial intestinal juice, percent of the substance released ([1]; t 8 min): 101.08%
- Release in artificial intestinal juice, percent of the substance released ([1]; t 10 min): 100.57%
- Release in artificial intestinal juice, percent of the substance released ([1]; t 12 min): 100.66%
- Release in artificial intestinal juice, percent of the substance released ([1]; t 15 min): 99.62%
- Release in artificial intestinal juice, percent of the substance released ([1]; t 30 min): 101.02%

SMILES: CN(C)C[C@H]1CCCC[C@]1(O)c1cccc(O)c1 [free base, (+)-(1R,2R)-3-[2-(dimethylamino)methyl-1-hydroxycyclohexyl]phenol]
- ΔM Desorption ([2]; 1st cycle, RH 0.0 %): 0.00000%
- ΔM Desorption ([2]; 1st cycle, RH 10.0 %): 0.00395%
- ΔM Desorption ([2]; 1st cycle, RH 20.0 %): 0.00526%
- ΔM Desorption ([2]; 1st cycle, RH 30.0 %): 0.00526%
- ΔM Desorption ([2]; 1st cycle, RH 40.0 %): 0.00636%
- ΔM Desorption ([2]; 1st cycle, RH 50.0 %): 0.00614%
- ΔM Hysteresis ([2]; 1st cycle, RH 50.0 %): −0.00241%
- ΔM Sorption ([2]; 1st cycle, RH 50.0 %): 0.00855%
- ΔM Desorption ([2]; 1st cycle, RH 60.0 %): 0.00526%
- ΔM Hysteresis ([2]; 1st cycle, RH 60.0 %): −0.00219%
- ΔM Sorption ([2]; 1st cycle, RH 60.0 %): 0.00746%
- ΔM Desorption ([2]; 1st cycle, RH 70.0 %): 0.00395%
- ΔM Hysteresis ([2]; 1st cycle, RH 70.0 %): 0.00219%
- ΔM Sorption ([2]; 1st cycle, RH 70.0 %): 0.00175%
- ΔM Desorption ([2]; 1st cycle, RH 80.0 %): 0.00132%
- ΔM Hysteresis ([2]; 1st cycle, RH 80.0 %): 0.00592%
- ΔM Sorption ([2]; 1st cycle, RH 80.0 %): −0.00461%
- ΔM Desorption ([2]; 1st cycle, RH 90.0 %): −0.01097%
- ΔM Sorption ([2]; 1st cycle, RH 90.0 %): −0.01097%
- ΔM Desorption ([2]; 2nd cycle, RH 0.0 %): −0.00461%
- ΔM Sorption ([2]; 2nd cycle, RH 0.0 %): 0.00000%
- ΔM Desorption ([2]; 2nd cycle, RH 10.0 %): −0.00132%
- ΔM Hysteresis ([2]; 2nd cycle, RH 10.0 %): −0.00329%
- ΔM Sorption ([2]; 2nd cycle, RH 10.0 %): 0.00197%
- ΔM Desorption ([2]; 2nd cycle, RH 20.0 %): 0.00044%
- ΔM Hysteresis ([2]; 2nd cycle, RH 20.0 %): −0.00351%
- ΔM Sorption ([2]; 2nd cycle, RH 20.0 %): 0.00395%
- ΔM Desorption ([2]; 2nd cycle, RH 30.0 %): 0.00132%
- ΔM Hysteresis ([2]; 2nd cycle, RH 30.0 %): −0.00395%
- ΔM Sorption ([2]; 2nd cycle, RH 30.0 %): 0.00526%
- ΔM Desorption ([2]; 2nd cycle, RH 40.0 %): 0.00307%
- ΔM Hysteresis ([2]; 2nd cycle, RH 40.0 %): −0.00395%
- ΔM Sorption ([2]; 2nd cycle, RH 40.0 %): 0.00702%
- ΔM Desorption ([2]; 2nd cycle, RH 50.0 %): 0.00395%
- ΔM Hysteresis ([2]; 2nd cycle, RH 50.0 %): −0.00592%
- ΔM Sorption ([2]; 2nd cycle, RH 50.0 %): 0.00987%
- ΔM Desorption ([2]; 2nd cycle, RH 60.0 %): 0.00395%
- ΔM Hysteresis ([2]; 2nd cycle, RH 60.0 %): −0.00724%
- ΔM Sorption ([2]; 2nd cycle, RH 60.0 %): 0.01119%
- ΔM Desorption ([2]; 2nd cycle, RH 70.0 %): 0.00329%
- ΔM Hysteresis ([2]; 2nd cycle, RH 70.0 %): −0.00417%
- ΔM Sorption ([2]; 2nd cycle, RH 70.0 %): 0.00746%
- ΔM Desorption ([2]; 2nd cycle, RH 80.0 %): 0.00132%
- ΔM Hysteresis ([2]; 2nd cycle, RH 80.0 %): 0.00197%
- ΔM Sorption ([2]; 2nd cycle, RH 80.0 %): −0.00066%
- ΔM Desorption ([2]; 2nd cycle, RH 90.0 %): −0.01031%
- ΔM Sorption ([2]; 2nd cycle, RH 90.0 %): −0.01031%
- ΔM Sorption ([2]; 3rd cycle, RH 0.0 %): −0.00461%
- ΔM Sorption ([2]; 3rd cycle, RH 10.0 %): −0.0011%
- ΔM Sorption ([2]; 3rd cycle, RH 20.0 %): 0.00066%
- ΔM Sorption ([2]; 3rd cycle, RH 30.0 %): 0.00197%
- ΔM Sorption ([2]; 3rd cycle, RH 40.0 %): 0.00461%
- ΔM Sorption ([2]; 3rd cycle, RH 50.0 %): 0.00768%

SMILES: CN(C)C[C@H]1CCCC[C@]1(O)c1cccc(O)c1.Cl [HCl-2]
- Release in artificial intestinal juice, percent of the substance released ([1]; t 2 min): 97.72%
- Release in artificial intestinal juice, percent of the substance released ([1]; t 4 min): 98.52%
- Release in artificial intestinal juice, percent of the substance released ([1]; t 6 min): 100.41%
- Release in artificial intestinal juice, percent of the substance released ([1]; t 8 min): 98.83%
- Release in artificial intestinal juice, percent of the substance released ([1]; t 10 min): 100.29%
- Release in artificial intestinal juice, percent of the substance released ([1]; t 12 min): 98.70%
- Release in artificial intestinal juice, percent of the substance released ([1]; t 15 min): 100.05%
- Release in artificial intestinal juice, percent of the substance released ([1]; t 30 min): 99.96%
